Assay results: PubChem BioAssay (NCI)
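The concentration for 50% growth inhibition is given as GI50. TGI: concentration producing complete growth inhibition.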

What was measured:
Assay in all cases: inhibition of tumour cell growth, NCI panel, 384-well format
[1] = test system: 786-0 renal
[2] = test system: A498 renal
[3] = test system: A549 NSCLC
[4] = test system: ACHN renal
[5] = test system: BT-549 breast
[6] = test system: CAKI-1 renal
[7] = test system: CCRF-CEM leukemia
[8] = test system: COLO 205 colon
[9] = test system: DU-145 prostate
[10] = test system: EKVX NSCLC
[11] = test system: HCC-2998 colon
[12] = test system: HCT-116 colon
[13] = test system: HCT-15 colon
[14] = test system: HL-60(TB) leukemia
[15] = test system: HOP-62 NSCLC
[16] = test system: HOP-92 NSCLC
[17] = test system: HS 578T breast
[18] = test system: HT29 colon
[19] = test system: IGROV1 ovarian
[20] = test system: K-562 leukemia
[21] = test system: KM12 colon
[22] = test system: LOX IMVI melanoma
[23] = test system: M14 melanoma
[24] = test system: MALME-3M melanoma
[25] = test system: MCF7 breast
[26] = test system: MDA-MB-435 melanoma
[27] = test system: MDA-MB-468 breast
[28] = test system: MOLT-4 leukemia
[29] = test system: NCI-H226 lung
[30] = test system: NCI-H23 lung
[31] = test system: NCI-H322M lung
[32] = test system: NCI-H460 NSCLC
[33] = test system: NCI-H522 lung
[34] = test system: NCI/ADR-RES ovarian
[35] = test system: OVCAR-3 ovarian
[36] = test system: OVCAR-4 ovarian
[37] = test system: OVCAR-8 ovarian
[38] = test system: PC-3 prostate
[39] = test system: RPMI-8226 leukemia
[40] = test system: RXF 393 renal
[41] = test system: SF-268 CNS
[42] = test system: SF-295 CNS
[43] = test system: SF-539 CNS
[44] = test system: SK-MEL-2 melanoma
[45] = test system: SK-MEL-28 melanoma
[46] = test system: SK-MEL-5 melanoma
[47] = test system: SK-OV-3 ovarian
[48] = test system: SN12C renal
[49] = test system: SNB-19 CNS
[50] = test system: SNB-75 CNS
[51] = test system: SW-620 colon
[52] = test system: TK-10 renal
[53] = test system: U251 glioblastoma
[54] = test system: UACC-257 melanoma
[55] = test system: UACC-62 melanoma

## CN(C)c1ccc(N)c2ccccc12
[1]
  GI50: 2.16 µM
  TGI: 9.6 µM
[2]
  GI50: 11.9 µM
  TGI: 24.3 µM
[3]
  GI50: 4.16 µM
  TGI: 16.6 µM
[4]
  GI50: 12.1 µM
  TGI: 24.6 µM
[5]
  GI50: 1.5 µM
  TGI: 2.84 µM
[6]
  GI50: 13.1 µM
  TGI: 26 µM
[7]
  GI50: 4.65 µM
  TGI: 19.1 µM
[8]
  GI50: 2.09 µM
  TGI: 4.21 µM
[9]
  GI50: 1.41 µM
  TGI: 2.73 µM
[10]
  GI50: 1.7 µM
  TGI: 8.1 µM
[11]
  GI50: 2.4 µM
  TGI: 16.2 µM
[12]
  GI50: 2.2 µM
  TGI: 5.93 µM
[13]
  GI50: 1.47 µM
  TGI: 3.54 µM
[14]
  GI50: 0.814 µM
  TGI: 2.1 µM
[15]
  GI50: 1.59 µM
  TGI: 2.98 µM
[16]
  GI50: 5.85 µM
  TGI: 19.5 µM
[17]
  GI50: 2.44 µM
  TGI: 6.72 µM
[18]
  GI50: 4.55 µM
  TGI: 16.4 µM
[19]
  GI50: 1.86 µM
  TGI: 16.1 µM
[20]
  GI50: 18.4 µM
  TGI: 32.4 µM
[21]
  GI50: 3.65 µM
  TGI: 14.8 µM
[22]
  GI50: 0.217 µM
  TGI: 1.56 µM
[23]
  GI50: 1.5 µM
  TGI: 2.84 µM
[24]
  GI50: 0.448 µM
  TGI: 1.68 µM
[25]
  GI50: 1.34 µM
  TGI: 2.64 µM
[26]
  GI50: 1.36 µM
  TGI: 2.65 µM
[27]
  GI50: 0.591 µM
  TGI: 4.61 µM
[28]
  GI50: 0.802 µM
  TGI: 2.48 µM
[29]
  GI50: 1.28 µM
  TGI: 7.63 µM
[30]
  GI50: 1.47 µM
  TGI: 2.88 µM
[31]
  GI50: 2.1 µM
  TGI: 3.86 µM
[32]
  GI50: 2.93 µM
  TGI: 10.4 µM
[33]
  GI50: 2.77 µM
  TGI: 11.6 µM
[34]
  GI50: 11.8 µM
  TGI: 24.6 µM
[35]
  GI50: 1.16 µM
  TGI: 2.52 µM
[36]
  GI50: 0.397 µM
  TGI: 3.65 µM
[37]
  GI50: 5.33 µM
  TGI: 17.5 µM
[38]
  GI50: 1.34 µM
  TGI: 6.24 µM
[39]
  GI50: 1.83 µM
  TGI: 5.98 µM
[40]
  GI50: 2.68 µM
  TGI: 10.5 µM
[41]
  GI50: 8.32 µM
  TGI: 20.5 µM
[42]
  GI50: 7.17 µM
  TGI: 20.1 µM
[43]
  GI50: 1.75 µM
  TGI: 3.3 µM
[44]
  GI50: 1.26 µM
  TGI: 2.77 µM
[45]
  GI50: 1.76 µM
  TGI: 3.71 µM
[46]
  GI50: 0.146 µM
  TGI: 1.61 µM
[47]
  GI50: 10.1 µM
  TGI: 21.8 µM
[48]
  GI50: 1.76 µM
  TGI: 3.19 µM
[49]
  GI50: 3.4 µM
  TGI: 11.7 µM
[50]
  GI50: 2.39 µM
  TGI: 7.53 µM
[51]
  GI50: 1.64 µM
  TGI: 3.11 µM
[52]
  GI50: 11.3 µM
  TGI: 23.5 µM
[53]
  GI50: 7.75 µM
  TGI: 20.4 µM
[54]
  GI50: 1.04 µM
  TGI: 2.22 µM
[55]
  GI50: 1.24 µM
  TGI: 2.5 µM
